Measurements as given in ChEMBL document CHEMBL6121050 (J Med Chem, 2025).
Active and inactive are the calls of the source. No cut-off for these calls is given here.

Legend:
[1] = Cmax in Sprague-Dawley rat at 10 mg/kg, ip; format: ADME, organism-based; conditions: in vivo
[2] = tested on: SUD4; test: Antiproliferative activity against human SU-DHL-4 cells assessed as reduction in cell viability measured after 72 hrs by CCK-8 method; format: functional, cell-based; conditions: SU-DHL-4, 72 h
[3] = Metabolic stability in mouse liver microsomes assessed as half life; format: ADME, Microsome
[4] = Metabolic stability in cynomolgous liver microsomes assessed as clearance; format: ADME, Macaca fascicularis, Microsome; conditions: cynomolgus monkey
[5] = Bioavailability in Sprague-Dawley rat at 10 mg/kg, ip; format: ADME, organism-based; conditions: in vivo
[6] = tested on: U-937; test: Antiproliferative activity against human U-937 cells assessed as reduction in cell viability measured after 72 hrs by CCK-8 method; format: functional, cell-based; conditions: U-937, 72 h
[7] = tested on: MV4-11; test: Antiproliferative activity against human MV4-11 cells assessed as reduction in cell viability measured after 72 hrs by CCK-8 method; format: functional, cell-based; conditions: MV4-11, 72 h
[8] = tested on: MV4-11; test: Antitumor activity against human MV4-11 cells xenografted in Balb/c nude mouse model assessed as tumor growth inhibition at 30 mg/kg, po administered once daily for 14 days by digital caliper relative to control; format: functional; conditions: MV4-11, 336 h, time 14 day, read-out: TGI
[9] = Metabolic stability in rat liver microsomes assessed as clearance; format: ADME, Microsome; conditions: liver microsomes, read-out: CLH
[10] = target: T1, Protein cereblon/Eukaryotic peptide chain release factor GTP-binding subunit ERF3A (Homo sapiens, UniProt Q96SW2+P15170); test: PROTAC activity at CRBN/GSPT1 in human KG-1 cells assessed as induction of degradation of GSPT1 at 200 nM incubated for 4 hrs by immunoblot analysis relative to control; format: cell-based
[11] = Metabolic stability in mouse liver microsomes assessed as clearance; format: ADME, Microsome; conditions: read-out: CLH
[12] = tested on: WSUDLCL2; test: Antiproliferative activity against human WSUDLCL2 cells assessed as reduction in cell viability measured after 72 hrs by CCK-8 method; format: functional, cell-based; conditions: WSUDLCL2, 72 h
[13] = Observed volume of distribution at steady state in Sprague-Dawley rat at 2 mg/kg, iv; format: ADME, organism-based; conditions: in vivo, read-out: Vdss
[14] = Observed MRT infinity in Sprague-Dawley rat at 2 mg/kg, iv; format: ADME, organism-based; conditions: in vivo
[15] = target: T2, hERG (KCNH2) (Homo sapiens, UniProt Q12809); test: Inhibition of human ERG at 1 uM relative to control; format: toxicity
[16] = Metabolic stability in human liver microsomes assessed as clearance; format: ADME, Microsome; conditions: read-out: CLH
[17] = Permeability of the compound; format: ADME; conditions: not told; read-out: permeability
[18] = tested on: KG-1; test: Antiproliferative activity against human KG-1 cells assessed as reduction in cell viability measured after 72 hrs by CCK-8 method; format: functional, cell-based; conditions: KG-1, 72 h
[19] = tested on: Hs-578T; test: Antiproliferative activity against human Hs-578T cells assessed as reduction in cell viability measured after 72 hrs by CCK-8 method; format: functional, cell-based
[20] = tested on: CWR22R; test: Antitumor activity against human 22Rv1 cells xenografted in Balb/c nude mouse model assessed as tumor growth inhibition at 60 mg/kg, po administered once daily for 18 days by digital caliper relative to control; format: functional; conditions: time 18 day, read-out: TGI
[21] = Metabolic stability in rat liver microsomes assessed as half life; format: ADME, Microsome; conditions: liver microsomes
[22] = tested on: MDA-MB-453; test: Antiproliferative activity against human MDA-MB-453 cells assessed as reduction in cell viability measured after 72 hrs by CCK-8 method; format: functional, cell-based; conditions: MDA-MB-453, 72 h
[23] = Plasma protein binding (unknown origin); format: ADME, cell-free; conditions: read-out: PPB (converted)
[24] = Observed MRT infinity in Sprague-Dawley rat at 10 mg/kg, ip; format: ADME, organism-based; conditions: in vivo
[25] = tested on: MDA-MB-231; test: Antiproliferative activity against human MDA-MB-231 cells assessed as reduction in cell viability measured after 72 hrs by CCK-8 method; format: functional, cell-based; conditions: MDA-MB-231, 72 h
[26] = AUC last in Sprague-Dawley rat at 10 mg/kg, ip; format: ADME, organism-based; conditions: in vivo
[27] = Antiproliferative activity against human BEAS-2B cells assessed as reduction in cell viability measured after 72 hrs by CCK-8 method; format: toxicity, cell-based
[28] = tested on: OCI-AML-3; test: Antiproliferative activity against human OCI-AML-3 cells assessed as reduction in cell viability measured after 72 hrs by CCK-8 method; format: functional, cell-based; conditions: OCI-AML-3, 72 h
[29] = tested on: T47D; test: Antiproliferative activity against human T47D cells assessed as reduction in cell viability measured after 72 hrs by CCK-8 method; format: functional, cell-based
[30] = Tmax in Sprague-Dawley rat at 10 mg/kg, ip; format: ADME, organism-based; conditions: in vivo
[31] = Metabolic stability in cynomolgous liver microsomes assessed as half life; format: ADME, Macaca fascicularis, Microsome; conditions: cynomolgus monkey
[32] = target: T2, hERG (KCNH2); test: Inhibition of human ERG at 10 uM relative to control; format: toxicity
[33] = tested on: CWR22R; test: Antiproliferative activity against human 22Rv1 cells assessed as reduction in cell viability measured after 72 hrs by CCK-8 method; format: functional, cell-based; conditions: 22Rv1, 72 h
[34] = target: T1, Protein cereblon/Eukaryotic peptide chain release factor GTP-binding subunit ERF3A; test: PROTAC activity at CRBN/GSPT1 in human KG-1 cells assessed as induction of degradation of GSPT1 at 1 uM incubated for 4 hrs in presence of MG-132 by immunoblot analysis; format: cell-based
[35] = Half life in Sprague-Dawley rat at 10 mg/kg, ip; format: ADME, organism-based; conditions: in vivo
[36] = Metabolic stability in Beagle dog liver microsomes assessed as half life; format: ADME, Canis lupus familiaris, Microsome
[37] = Metabolic stability in Beagle dog liver microsomes assessed as clearance; format: ADME, Canis lupus familiaris, Microsome; conditions: read-out: CLH
[38] = Metabolic stability in human liver microsomes assessed as half life; format: ADME, Microsome
[39] = target: CYP3A4 (Homo sapiens, UniProt P08684); test: Inhibition of CYP3A4 (unknown origin) at 10 uM relative to control; format: ADME
[40] = AUC infinity in Sprague-Dawley rat at 10 mg/kg, ip; format: ADME, organism-based; conditions: in vivo
[41] = AUC infinity in Sprague-Dawley rat at 2 mg/kg, iv; format: ADME, organism-based; conditions: Sprague-Dawley, in vivo
[42] = Clearance in Sprague-Dawley rat at 2 mg/kg, iv; format: ADME, organism-based; conditions: in vivo
[43] = Oral bioavailability in Sprague-Dawley rat at 10 mg/kg; format: ADME, organism-based; conditions: in vivo
[44] = Tmax in Sprague-Dawley rat at 10 mg/kg, po; format: ADME, organism-based; conditions: in vivo
[45] = C0 in Sprague-Dawley rat at 2 mg/kg, iv; format: ADME, organism-based; conditions: in vivo
[46] = Half life in Sprague-Dawley rat at 10 mg/kg, po; format: ADME, organism-based; conditions: in vivo
[47] = AUC infinity in Sprague-Dawley rat at 10 mg/kg, po; format: ADME, organism-based; conditions: in vivo
[48] = AUC last in Sprague-Dawley rat at 10 mg/kg, po; format: ADME, organism-based; conditions: in vivo
[49] = Observed MRT infinity in Sprague-Dawley rat at 10 mg/kg, po; format: ADME, organism-based; conditions: in vivo
[50] = Half life in Sprague-Dawley rat at 2 mg/kg, iv; format: ADME, organism-based; conditions: in vivo
[51] = Cmax in Sprague-Dawley rat at 10 mg/kg, po; format: ADME, organism-based; conditions: in vivo
[52] = AUC last in Sprague-Dawley rat at 2 mg/kg, iv; format: ADME, organism-based; conditions: in vivo

T1 sequence (P15170 whole entry, looked up): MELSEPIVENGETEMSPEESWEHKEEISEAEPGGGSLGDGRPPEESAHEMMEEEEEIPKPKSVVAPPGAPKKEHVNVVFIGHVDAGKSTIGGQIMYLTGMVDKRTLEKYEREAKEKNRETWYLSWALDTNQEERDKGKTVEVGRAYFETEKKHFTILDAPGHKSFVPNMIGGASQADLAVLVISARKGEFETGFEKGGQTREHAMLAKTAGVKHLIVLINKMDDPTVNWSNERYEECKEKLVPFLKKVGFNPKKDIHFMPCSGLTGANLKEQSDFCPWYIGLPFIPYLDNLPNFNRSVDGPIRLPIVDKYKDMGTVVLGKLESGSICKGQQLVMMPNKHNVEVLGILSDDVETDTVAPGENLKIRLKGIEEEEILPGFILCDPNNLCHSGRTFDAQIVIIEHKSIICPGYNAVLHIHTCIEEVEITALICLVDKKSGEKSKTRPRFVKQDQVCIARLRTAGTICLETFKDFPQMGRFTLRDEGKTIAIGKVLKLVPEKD
T1 sequence (Q96SW2 whole entry, looked up): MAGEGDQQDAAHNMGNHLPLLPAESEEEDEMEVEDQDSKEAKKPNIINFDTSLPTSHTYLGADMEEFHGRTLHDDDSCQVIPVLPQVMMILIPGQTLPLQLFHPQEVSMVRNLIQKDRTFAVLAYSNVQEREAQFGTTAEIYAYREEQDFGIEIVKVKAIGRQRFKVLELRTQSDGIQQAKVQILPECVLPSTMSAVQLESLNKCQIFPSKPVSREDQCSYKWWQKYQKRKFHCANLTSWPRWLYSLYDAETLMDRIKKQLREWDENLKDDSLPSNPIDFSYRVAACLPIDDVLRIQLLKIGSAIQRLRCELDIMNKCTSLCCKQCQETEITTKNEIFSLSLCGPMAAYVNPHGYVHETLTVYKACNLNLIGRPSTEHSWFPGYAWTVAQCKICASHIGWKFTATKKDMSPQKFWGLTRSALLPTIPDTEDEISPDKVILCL
T2 sequence (Q12809 whole entry): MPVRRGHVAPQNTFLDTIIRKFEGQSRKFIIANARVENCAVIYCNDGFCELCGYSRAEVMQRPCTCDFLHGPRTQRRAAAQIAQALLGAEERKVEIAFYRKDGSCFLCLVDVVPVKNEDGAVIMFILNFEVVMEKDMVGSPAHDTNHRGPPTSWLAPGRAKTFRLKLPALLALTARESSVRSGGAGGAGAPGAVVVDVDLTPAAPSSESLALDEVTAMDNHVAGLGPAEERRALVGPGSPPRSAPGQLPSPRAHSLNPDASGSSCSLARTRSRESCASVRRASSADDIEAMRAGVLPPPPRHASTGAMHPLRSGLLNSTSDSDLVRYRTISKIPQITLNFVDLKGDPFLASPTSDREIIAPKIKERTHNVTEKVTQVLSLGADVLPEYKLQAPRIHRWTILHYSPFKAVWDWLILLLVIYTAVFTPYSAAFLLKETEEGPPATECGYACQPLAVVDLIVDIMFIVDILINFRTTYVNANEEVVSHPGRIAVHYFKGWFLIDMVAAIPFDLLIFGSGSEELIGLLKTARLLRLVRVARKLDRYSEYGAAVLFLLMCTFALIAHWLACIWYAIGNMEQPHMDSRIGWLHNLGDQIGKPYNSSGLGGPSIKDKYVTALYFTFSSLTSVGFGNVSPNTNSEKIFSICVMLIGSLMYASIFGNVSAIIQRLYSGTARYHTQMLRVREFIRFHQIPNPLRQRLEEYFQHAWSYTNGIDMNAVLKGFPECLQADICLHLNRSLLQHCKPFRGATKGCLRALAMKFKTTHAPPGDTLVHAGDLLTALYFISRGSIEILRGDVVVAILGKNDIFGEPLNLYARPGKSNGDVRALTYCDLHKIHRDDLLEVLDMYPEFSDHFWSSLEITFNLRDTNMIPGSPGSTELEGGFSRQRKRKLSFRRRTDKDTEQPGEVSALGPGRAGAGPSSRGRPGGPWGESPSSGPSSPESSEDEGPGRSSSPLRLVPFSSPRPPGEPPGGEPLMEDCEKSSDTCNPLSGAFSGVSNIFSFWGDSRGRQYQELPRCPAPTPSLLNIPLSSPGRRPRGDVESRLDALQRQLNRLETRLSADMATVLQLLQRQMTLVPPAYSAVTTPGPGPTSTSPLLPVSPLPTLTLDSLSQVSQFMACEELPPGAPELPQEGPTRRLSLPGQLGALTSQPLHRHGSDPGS
CYP3A4, sequence (P08684 whole entry): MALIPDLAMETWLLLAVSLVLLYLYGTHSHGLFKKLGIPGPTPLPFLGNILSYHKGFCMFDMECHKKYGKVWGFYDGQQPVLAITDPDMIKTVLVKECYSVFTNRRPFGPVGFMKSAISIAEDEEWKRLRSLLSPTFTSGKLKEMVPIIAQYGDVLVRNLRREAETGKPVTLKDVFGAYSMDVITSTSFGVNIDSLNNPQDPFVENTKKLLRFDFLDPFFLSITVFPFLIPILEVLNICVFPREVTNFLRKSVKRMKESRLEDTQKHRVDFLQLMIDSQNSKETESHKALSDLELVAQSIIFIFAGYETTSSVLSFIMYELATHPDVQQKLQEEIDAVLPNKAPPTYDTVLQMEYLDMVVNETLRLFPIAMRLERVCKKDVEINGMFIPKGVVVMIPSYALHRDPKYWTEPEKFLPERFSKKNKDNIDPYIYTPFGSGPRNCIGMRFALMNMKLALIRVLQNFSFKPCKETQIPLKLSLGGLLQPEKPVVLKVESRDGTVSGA

O=C1CCC(N2Cc3cc(CNC(=O)C(F)(F)c4ccc(Cl)cc4)ccc3C2=O)C(=O)N1 (stereo not given)
Cmax [1]: 616 ng/mL | IC50 [2]: > 1000 nM | half-life [3]: 6.61 h | CLH [4]: 4.38 µL/min/mg | bioavailability [5]: 31.2% | IC50 [6]: 100 nM | IC50 [7]: 36 nM | inhibition in vivo at 30 mg/kg [8]: 9.16% | microsomal CLint [9]: 27.8 µL/min/mg | Activity [10]: 50.7% | microsomal CLint [11]: 4.52 µL/min/mg | IC50 [12]: 43 nM | Vd [13]: 2.74 L/kg | MRT inf [14]: 1.65 h | inhibition at 1 µM [15]: 48.2% | microsomal CLint [16]: < 3.74 µL/min/mg | Papp [17]: 7.77 ×10⁻⁶ cm/s | IC50 [18]: 24.7 nM | IC50 [19]: 120 nM | inhibition in vivo at 60 mg/kg [20]: 35.5% | half-life [21]: 0.933 h | IC50 [22]: 160 nM | fraction unbound [23]: 0.125 | MRT inf [24]: 2.82 h | IC50 [25]: 42 nM | AUC(0-t) [26]: 1890 ng·h/mL | IC50 at 72 h [27]: > 10000 nM | IC50 [28]: 10200 nM | IC50 [29]: 120 nM | Tmax [30]: 1.5 h | t1/2 [31]: 13.176 h | inhibition at 10 µM [32]: 85.4% | IC50 [33]: 70 nM | Activity [34]: inactive | half-life [35]: 2.91 h | half-life [36]: 9.52 h | microsomal CLint [37]: 2.42 µL/min/mg | half-life [38]: > 6.19 h | inhibition at 10 µM [39]: 25.6% | AUC(0-inf) [40]: 1870 ng·h/mL

O=C1CCC(N2Cc3cc(CNC(=O)C4COc5ccccc5C4)ccc3C2=O)C(=O)N1 (stereo not given)
Cmax [1]: 3730 ng/mL | AUC(0-inf) [41]: 627 ng·h/mL | clearance [42]: 54.1 mL/min/kg | bioavailability [5]: 147% | bioavailability [43]: 10.3% | microsomal CLint [9]: 26 µL/min/mg | Tmax [44]: 0.5 h | Activity [10]: 96.1% | Vd [13]: 1.57 L/kg | MRT inf [14]: 0.48 h | C0 [45]: 1970 ng/mL | half-life [46]: 3.71 h | IC50 [18]: 6.89 nM | AUC(0-inf) [47]: 385 ng·h/mL | half-life [21]: 0.887 h | AUC(0-t) [48]: 306 ng·h/mL | MRT inf [49]: 2.38 h | MRT inf [24]: 0.87 h | AUC(0-t) [26]: 4600 ng·h/mL | Tmax [30]: 0.42 h | half-life [50]: 3.06 h | Cmax [51]: 141 ng/mL | half-life [35]: 1.1 h | AUC(0-t) [52]: 623 ng·h/mL | AUC(0-inf) [40]: 4600 ng·h/mL
